Where “and” joins values, the source holds several entries; their conditions need not be identical. Identical values can stand only once.
Assays:
[1] = target: Polyketide synthase Pks13 (Mycobacterium tuberculosis (strain ATCC 25618 / H37Rv), UniProt I6X8D2); assay: Mycobacterium tuberculosis Polyketide synthase 13 Thioesterase (PKS13); type: functional
Lysine--tRNA ligase = Lysine--tRNA ligase (Plasmodium falciparum (isolate 3D7), UniProt Q8IDJ8); assay: Pf-KRS-1 (Lysyl-RNA Synthetase-1, KRS-1, cytosolic KRS) from Plasmodium falciparum. Inhibitor assay, 384 well plate, luminescence read.; type: functional
ClpP1P2 = ClpP1P2 (Mycobacterium tuberculosis (strain ATCC 25618 / H37Rv), UniProt P9WPC3+P9WPC5); assay: in vitro assay to detect presence of AMC directly proportional to the activity of ClpP1P2. GHDDI collaboration.; type: functional
Leishmania donovani = assay: Leishmania intramacrophage assay; type: functional, organism-based; details: Leishmania donovani
[2] = target: T1, Coenzyme A biosynthesis bifunctional protein CoaBC (Mycobacterium tuberculosis (strain ATCC 25618 / H37Rv), UniProt P9WNZ1); assay: Biomol Green assay for MtCoaBC inhibitor, OD650 read; type: functional
T1 sequence (P9WNZ1 whole entry): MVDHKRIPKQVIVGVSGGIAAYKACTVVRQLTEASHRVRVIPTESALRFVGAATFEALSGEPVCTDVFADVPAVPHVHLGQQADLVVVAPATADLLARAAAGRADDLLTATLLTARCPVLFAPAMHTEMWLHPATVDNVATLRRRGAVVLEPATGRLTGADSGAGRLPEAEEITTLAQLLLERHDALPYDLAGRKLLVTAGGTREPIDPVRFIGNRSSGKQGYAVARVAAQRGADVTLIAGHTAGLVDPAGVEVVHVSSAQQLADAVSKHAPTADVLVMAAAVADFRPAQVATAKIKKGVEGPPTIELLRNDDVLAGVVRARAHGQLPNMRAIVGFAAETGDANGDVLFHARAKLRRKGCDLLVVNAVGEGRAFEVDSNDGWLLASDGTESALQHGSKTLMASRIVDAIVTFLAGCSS

Histidine--tRNA ligase = target: T2, Histidine--tRNA ligase (Leishmania infantum, UniProt A4I591); assay: Leishmania infantum Histidine tRNA synthetase (LdHisRS); type: functional
T2 sequence (A4I591 whole entry): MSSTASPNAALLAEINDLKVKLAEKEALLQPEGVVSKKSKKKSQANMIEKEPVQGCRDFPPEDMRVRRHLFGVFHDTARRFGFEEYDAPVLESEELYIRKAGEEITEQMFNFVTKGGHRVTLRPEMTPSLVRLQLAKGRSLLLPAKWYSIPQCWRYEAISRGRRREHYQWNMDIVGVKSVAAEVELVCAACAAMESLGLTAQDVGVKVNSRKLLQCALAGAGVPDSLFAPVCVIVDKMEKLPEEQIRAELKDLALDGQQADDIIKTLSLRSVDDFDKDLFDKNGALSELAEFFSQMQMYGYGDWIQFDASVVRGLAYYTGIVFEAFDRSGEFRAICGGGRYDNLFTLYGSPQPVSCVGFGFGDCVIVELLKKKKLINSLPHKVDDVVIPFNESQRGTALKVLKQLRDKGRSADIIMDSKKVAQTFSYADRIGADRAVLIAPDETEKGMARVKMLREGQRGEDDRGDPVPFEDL

[3] = In vitro enzyme assay to detect hydrolysis of chlorophenol red-beta-D-[…] directly proportional to the number of Toxoplasma stably expressing beta-galactosidase; type: functional, organism-based, Toxoplasma gondii; details: for IC50: Toxoplasma gondii
Plasmodium falciparum = assay: Calibr Malaria Delayed Death Assay SOP; type: functional, organism-based
[4] = microbe, parasite or virus in culture; details: Mycobacterium tuberculosis, 72 h, read-out: pIC50 (converted)
[5] = microbe, parasite or virus in culture; details: Mycobacterium tuberculosis, 96 h, read-out: pIC50 (converted)

Sequence of Lysine--tRNA ligase (Q8IDJ8 whole entry): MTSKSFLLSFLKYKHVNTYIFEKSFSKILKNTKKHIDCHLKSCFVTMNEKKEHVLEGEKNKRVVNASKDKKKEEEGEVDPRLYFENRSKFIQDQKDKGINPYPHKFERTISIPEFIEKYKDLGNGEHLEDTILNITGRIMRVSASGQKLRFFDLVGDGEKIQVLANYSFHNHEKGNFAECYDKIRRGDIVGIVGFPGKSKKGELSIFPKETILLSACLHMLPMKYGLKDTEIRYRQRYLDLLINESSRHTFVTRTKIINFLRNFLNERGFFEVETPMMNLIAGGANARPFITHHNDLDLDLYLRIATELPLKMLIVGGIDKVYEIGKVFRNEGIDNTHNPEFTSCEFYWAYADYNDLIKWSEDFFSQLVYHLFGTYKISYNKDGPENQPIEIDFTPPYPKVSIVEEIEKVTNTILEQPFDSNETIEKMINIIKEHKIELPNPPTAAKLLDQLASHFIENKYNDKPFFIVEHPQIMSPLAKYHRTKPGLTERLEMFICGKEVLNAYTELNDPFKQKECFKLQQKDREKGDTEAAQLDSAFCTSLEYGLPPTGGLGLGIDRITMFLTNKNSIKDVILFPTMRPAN
Sequence of Polyketide synthase Pks13 (I6X8D2 whole entry): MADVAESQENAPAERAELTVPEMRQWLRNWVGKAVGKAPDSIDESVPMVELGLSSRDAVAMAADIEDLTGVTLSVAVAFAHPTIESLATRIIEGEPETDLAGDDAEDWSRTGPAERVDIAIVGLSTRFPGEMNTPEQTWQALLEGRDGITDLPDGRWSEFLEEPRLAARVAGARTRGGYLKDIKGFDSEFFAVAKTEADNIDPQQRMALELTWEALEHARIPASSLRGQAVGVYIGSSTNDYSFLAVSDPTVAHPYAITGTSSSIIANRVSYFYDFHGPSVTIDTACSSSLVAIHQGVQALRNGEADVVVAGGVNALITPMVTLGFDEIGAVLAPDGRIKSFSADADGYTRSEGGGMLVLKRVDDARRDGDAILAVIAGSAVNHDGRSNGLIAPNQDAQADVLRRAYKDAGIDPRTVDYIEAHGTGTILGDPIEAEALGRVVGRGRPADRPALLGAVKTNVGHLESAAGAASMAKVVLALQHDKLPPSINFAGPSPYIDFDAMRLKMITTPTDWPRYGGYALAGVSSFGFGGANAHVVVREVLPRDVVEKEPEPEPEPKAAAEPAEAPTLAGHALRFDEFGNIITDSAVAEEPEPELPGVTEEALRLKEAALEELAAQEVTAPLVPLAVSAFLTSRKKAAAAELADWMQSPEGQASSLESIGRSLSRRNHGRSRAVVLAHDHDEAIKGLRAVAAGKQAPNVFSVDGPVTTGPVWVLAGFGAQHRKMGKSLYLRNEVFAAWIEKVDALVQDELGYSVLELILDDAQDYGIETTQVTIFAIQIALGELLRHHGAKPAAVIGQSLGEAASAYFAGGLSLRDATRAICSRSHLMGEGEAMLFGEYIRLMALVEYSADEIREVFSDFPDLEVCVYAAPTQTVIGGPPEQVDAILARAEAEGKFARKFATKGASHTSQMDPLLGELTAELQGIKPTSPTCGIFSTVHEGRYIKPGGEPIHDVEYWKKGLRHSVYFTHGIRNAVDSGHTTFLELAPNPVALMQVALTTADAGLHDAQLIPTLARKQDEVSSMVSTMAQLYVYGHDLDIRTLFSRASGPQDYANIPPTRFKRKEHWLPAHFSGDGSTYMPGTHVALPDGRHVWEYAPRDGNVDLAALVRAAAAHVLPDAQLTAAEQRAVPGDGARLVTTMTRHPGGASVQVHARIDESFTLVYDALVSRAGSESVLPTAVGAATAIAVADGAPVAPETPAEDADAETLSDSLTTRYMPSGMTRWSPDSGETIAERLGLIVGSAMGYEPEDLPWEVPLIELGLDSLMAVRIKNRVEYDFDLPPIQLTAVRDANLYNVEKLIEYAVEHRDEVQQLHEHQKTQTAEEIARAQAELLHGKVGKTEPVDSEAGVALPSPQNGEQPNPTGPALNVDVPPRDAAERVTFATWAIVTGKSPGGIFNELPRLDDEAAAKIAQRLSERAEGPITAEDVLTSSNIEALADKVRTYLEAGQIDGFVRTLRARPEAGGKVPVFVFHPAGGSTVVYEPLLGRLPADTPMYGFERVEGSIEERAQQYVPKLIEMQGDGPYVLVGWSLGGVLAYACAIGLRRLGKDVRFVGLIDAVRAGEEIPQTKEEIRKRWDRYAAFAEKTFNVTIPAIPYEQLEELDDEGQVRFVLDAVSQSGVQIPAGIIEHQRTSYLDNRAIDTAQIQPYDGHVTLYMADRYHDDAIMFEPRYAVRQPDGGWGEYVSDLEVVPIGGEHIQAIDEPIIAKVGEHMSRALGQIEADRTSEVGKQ
Sequence of ClpP1P2 (P9WPC5 whole entry): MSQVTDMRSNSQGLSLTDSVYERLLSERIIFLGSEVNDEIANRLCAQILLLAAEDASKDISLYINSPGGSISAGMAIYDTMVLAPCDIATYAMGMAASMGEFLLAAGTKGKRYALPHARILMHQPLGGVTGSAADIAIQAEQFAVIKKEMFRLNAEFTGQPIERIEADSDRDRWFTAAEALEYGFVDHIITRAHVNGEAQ
Sequence of ClpP1P2 (P9WPC3 whole entry): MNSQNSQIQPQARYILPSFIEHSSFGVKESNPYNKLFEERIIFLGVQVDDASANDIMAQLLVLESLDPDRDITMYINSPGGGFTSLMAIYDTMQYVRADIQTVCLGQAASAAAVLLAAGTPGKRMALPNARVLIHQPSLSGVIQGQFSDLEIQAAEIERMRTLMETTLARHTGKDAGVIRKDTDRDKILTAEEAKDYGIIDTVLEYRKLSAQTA

Structure (SMILES) | IC50 [1] | IC50 (Lysine--tRNA ligase) | IC50 (Histidine--tRNA ligase) | other results
O=C(c1cnccn1)N1C[C@@H]2CC[C@H](C1)N(S(=O)(=O)c1cccnc1)C2 | > 100 µM |  |  | 
Cc1csc2ncc(-c3ccnc(N4CCCC4)n3)c(=O)n12 | > 100 µM |  |  | 
CC(C)N1Cc2cccc(NCC(=O)N(C)C3CCCCC3)c2C1 | > 100 µM |  |  | 
COCC1CCN(C(=O)c2cc(-c3ccco3)nc3c(Cl)cccc23)C1 (stereo unspecified) | 34.6 µM and > 100 µM |  |  | 
Cc1nnsc1C(=O)N1CC[C@H](c2ccccc2)[C@@H]2[C@H]1CCCCN2C | > 100 µM |  |  | 
Cn1nc(C2CCCN2)c2c(C(=O)NCC(F)(F)F)cc(C3CC3)nc21 (stereo unspecified) | > 100 µM |  |  | 
COc1cccc(CN2CCC3(CCN(c4ncc(C)cn4)CC3)C2)c1 | > 100 µM |  |  | 
Cc1cccc(-n2nnnc2C(C)(C)Nc2ccccc2C)c1 | 13.8 µM and 11.7 µM |  |  | 
Cn1cnnc1C1CCN(c2cncc(-n3cccn3)n2)CC1 |  | > 50.1 µM |  | IC50 (ClpP1P2): > 100 µM; IC50 (Leishmania donovani): > 50.1 µM
O=C(COCc1ccccc1Cl)N1CCN(c2ccc(Br)cn2)CC1 | 26.1 µM and 19.2 µM |  |  | 
CC1(C)Cc2ccccc2-c2nc(NCCCO)[nH]c(=O)c21 | 28.6 µM and 27.1 µM |  |  | 
O=C(O)[C@]12CCCN(Cc3ccccn3)[C@@H]1CCN(c1cnccn1)C2 | > 100 µM |  |  | 
CCc1cccc(C)c1NC(=O)C1CC(=O)N(Cc2ccccn2)C1 (stereo unspecified) | > 100 µM |  |  | 
CCC(C)Nc1ccc(-c2nc(-c3cccc(OC)c3OC)no2)cn1 (stereo unspecified) | 28.7 µM and 14 µM |  |  | 
Cc1cc(NCc2cccc(C#N)c2)ccc1Br | 20.6 µM and 18 µM |  |  | 
O=C(c1ccc2c(c1)CCCC2)N1CCn2ncnc2C1 |  | > 50.1 µM |  | IC50 [2]: > 30.2 µM
Cn1ccc(C(=O)NC2CCN(c3ncccn3)CC2)cc1=O | > 100 µM |  |  | 
Nc1cc(C(=O)NCC2CCN(Cc3ccncc3F)C2)ccn1 (stereo unspecified) | > 100 µM |  |  | 
COc1cccc(N2CCN(C(=O)C(O)c3ccccc3Cl)CC2=O)c1 (stereo unspecified) | > 100 µM |  |  | 
N#Cc1cccc(N2CCCC(CO)(CCOc3ccccc3)C2)n1 (stereo unspecified) | 34.6 µM and 6.67 µM |  |  | 
N#Cc1cccc(N2CCC(CO)(CCOc3ccccc3)CC2)n1 | 48.2 µM and 33.8 µM |  |  | 
CCOc1ccc2nc(CN3CCOC(CN)C3)ccc2c1 (stereo unspecified) | > 100 µM |  |  | 

Structure (SMILES) | IC50 [1] | IC50 (Lysine--tRNA ligase) | IC50 (Histidine--tRNA ligase) | other results
CCN1CCC(N[C@@H]2CC[C@@H]2NC(=O)Cc2csc(C)n2)CC1 | > 100 µM |  |  | 
CC(C)NC(=O)[C@@H]1CN(C(=O)C2CC2)C[C@]12Cc1ccccc1C(=O)N2 | > 100 µM |  |  | 
CN1CCc2ccc(NCc3cccs3)cc2C1=O | > 100 µM |  |  | 
O=C(c1cc2cc(F)ccc2[nH]1)N1CCC(Nc2ccc(F)cc2)CC1 | > 100 µM and 12.6 µM |  |  | 
c1ccc(CCCN2CC[C@H](c3nnc(-c4ccccc4)o3)C2)cc1 | > 100 µM |  |  | 
Cc1cccc(C(C)CNS(=O)(=O)CCCC#N)c1 (stereo unspecified) | > 100 µM |  |  | 
CC(O)CN1CCC(CNCc2cccc(C(N)=O)c2)CC1 (stereo unspecified) | > 100 µM |  |  | 
O=C(c1ccco1)N1CCO[C@@H]2CN(c3ccccn3)CC[C@@H]2C1 | > 100 µM |  |  | 
O=S(=O)(c1c(N2CCCCC2)ccc2nonc12)N1CCCCC1 | 26.1 µM and 29.2 µM |  |  | 
COc1ccc(NC(C)C(=O)N2CCCC2)cn1 (stereo unspecified) | > 100 µM |  |  | 
CCC[C@H]1CN(S(C)(=O)=O)C[C@@H]1NC(=O)c1ccc(COC)cc1 | > 100 µM |  |  | 
Cc1cccc(COc2ccc(NC(=O)C(C)NC(N)=O)c(C)c2)c1 (stereo unspecified) | > 100 µM |  |  | 
COc1cccc(-c2cc(NCC(=O)O)nc3[nH]ccc23)n1 | 29.9 µM and 35.7 µM |  |  | 
COc1ccc(N)c(N2CCN(C(C)=O)CC2)n1 |  | > 50.1 µM | 16.5 µM and 15.6 µM | 
Cc1nnc(NCC(c2ccco2)N2CCCC2)c(C#N)c1C (stereo unspecified) |  | > 50.1 µM | 27.1 µM and 17.8 µM | 
Cn1cc(Br)cc(NC(=O)CC(C)(C)C)c1=O |  | > 50.1 µM | 13.9 µM and 12 µM | 
COCCn1cc(NC(=O)NC(C)CCc2ccccc2)ccc1=O (stereo unspecified) |  | > 50.1 µM | 3.09 µM and 3.5 µM | 
COC(=O)c1ccc(OC)c(Cn2cc(N)cn2)c1 |  | > 50.1 µM | 56.4 µM and 66 µM | 
Cc1nnc(N2CCc3cncnc3C2)c(C#N)c1C |  | > 50.1 µM | 21.4 µM and 27.5 µM | 
Cn1nc2c(cc1=O)CN(c1ncnc3ccsc13)CC2 |  | > 50.1 µM | 14.1 µM and 17.4 µM | IC50 [3]: 6.44 µM
CCCn1nc2c(cc1=O)CN(c1ncnc3ccsc13)CC2 |  | > 50.1 µM | 43.5 µM and 33.5 µM | 
CN(Cc1ccco1)C(=O)Nc1ccc(=O)n(C)c1 |  | > 50.1 µM | 11.6 µM and 9.89 µM | 

Structure (SMILES) | IC50 [1] | IC50 (Lysine--tRNA ligase) | IC50 (Histidine--tRNA ligase) | other results
Cn1nc2c(cc1=O)CN(c1ncnc3sccc13)CC2 |  | > 50.1 µM | 6.32 µM and 5.55 µM | IC50 [3]: 9.58 µM; IC50 [2]: > 30.2 µM
Cc1noc(C(C)Nc2ccc3oc(C(C)C)nc3c2)n1 (stereo unspecified) |  | > 50.1 µM | 34.3 µM and 43.8 µM | 
COc1cc(F)c(S(=O)(=O)Nc2cnc(O)cc2C)cc1OC |  | > 50.1 µM | 16.2 µM and 17.5 µM | 
Oc1ccc(N(CCc2ccccc2)CCn2cncn2)cc1 |  | > 50.1 µM | 39.6 µM and 56.7 µM | 
Nc1nc(CC(=O)N2CCCC(CCc3cccc(F)c3)C2)cc(=O)[nH]1 (stereo unspecified) |  | > 50.1 µM | 13.8 µM and 10 µM | 
CCc1ccc(-c2cc(C(F)(F)F)nc(N3CCC(N)CC3)n2)cc1 |  | > 50.1 µM | 26.9 µM and 24.6 µM | pIC50 (Plasmodium falciparum): 5.997; IC50 (Plasmodium falciparum; Plasmodium falciparum): 1.03 µM; IC50 [4]: 13 µM; pIC50 [3]: 5.409; IC50 [3]: 2.22 µM; IC50 [5]: 15.3 µM
CCCOCC1CCN(C(=O)Cn2cccc(OC)c2=O)C1 (stereo unspecified) |  | > 50.1 µM | 2.01 µM and 1.03 µM and 2.08 µM and 1.01 µM | 
Cn1cccc(NC(=O)N2CCC(COCc3ccccc3)C2)c1=O (stereo unspecified) |  | > 50.1 µM | 3.47 µM and 4.31 µM | 
CCOCC1CCN(C(=O)C(c2ccccc2F)N(C)C)CC1 (stereo unspecified) |  | > 50.1 µM |  | IC50 [4]: > 50.1 µM; IC50 [5]: > 50.1 µM; IC50 [2]: > 30.2 µM
Cc1occc1CN(C)C(=O)Nc1ccc(=O)n(C)c1 |  | > 50.1 µM | 9.57 µM and 9.94 µM | 
CC(C)NC(=O)N1CCC(c2nnc3n2CCNC3)CC1 |  | > 50.1 µM | 14.9 µM and 14.8 µM | 
COCCc1ncc(-c2c(C#N)c(N)nc3c2CCc2[nH]ccc2-3)cn1 |  | > 50.1 µM | 6.54 µM and 5.62 µM | 
COCCCN1CCc2cncnc2C1 |  | > 50.1 µM | 29.5 µM and 38.3 µM | 
CC(C)Cc1ccc(S(=O)(=O)Nc2ccc(=O)n(C)c2)cc1 |  | > 50.1 µM | 12.5 µM and 18.7 µM | 
COCCn1cc(NC(=O)C(C)CCc2ccccc2F)ccc1=O (stereo unspecified) |  | > 50.1 µM | 3.96 µM and 4.01 µM | 
COc1ccsc1C(=O)Nc1cc(Cl)c(=O)n(C)c1 |  | > 50.1 µM | 12.3 µM and 10.6 µM | IC50 [2]: > 30.2 µM
Cn1cccc(NC(=O)N2CCC(Cc3ccccc3)C2)c1=O (stereo unspecified) |  | > 50.1 µM | 9.56 µM and 6.68 µM | 
Cc1ccc(S(=O)(=O)Nc2ccc(=O)n(C)c2)cc1 |  | > 50.1 µM | 24.8 µM and 32.1 µM | IC50 (Leishmania donovani): > 50.1 µM
COCCn1cc(NCc2cn(C)nc2-c2ccncc2)cn1 |  | > 50.1 µM | 47.4 µM and 46.6 µM | 
COc1ncc(C)cc1NC(=O)COCC(F)(F)F |  | > 50.1 µM | 25.3 µM and 19.4 µM | 
Cc1cc(=O)n(C)cc1NC(=O)CC1CCC1 |  | > 50.1 µM | 7.56 µM and 7.2 µM | 

Source: ChEMBL document CHEMBL3988442, “University of Dundee, Small-Polar-MMV Screening Library” (2021)
